According to paper PMC11811597, “Phenomics‐Based Discovery of Novel Orthosteric Choline Kinase Inhibitors” (Angewandte Chemie (International Ed. in English), 2025):

Columns and labels:
Assay type in all cases: cell-based
TGOLN2 = target: T1, TGOLN2 (Homo sapiens, UniProt O43493); test: PISA thermal profiling, intact HepG2 cells; conditions: 30 µM, 60 min, n=3
T1 construct: endogenous in cells; host or cells: intact HepG2 cells
Experimental: (§1) To further corroborate our findings, we next performed the proteome integral solubility alteration (PISA) assay in HepG2 human hepatoma cells that express high levels of CHKA. Conceptually building on the cellular thermal shift assay (CETSA) with mass spectrometry based detection,[19, 20] PISA leverages compound‐mediated stabilisation of target proteins without the need of chemical modification in intact cells. […]
(§2) Experiments were performed as described earlier with few modifications. In short, 3 replicates of intact HepG2 cells were treated with 30 µM UNC0638, UNC373 or corresponding volume of DMSO in medium-free experimental buffer for 60 min at 37 °C with end-over-end rotation. For lysates: Washed […]
(§3) end-over-end rotation. Each treated cell suspension or lysate was divided into 12 aliquots and subjected to a 12-step heat gradient from 44 °C to 64 °C. All the temperature points were pooled together to form […] individual samples. Soluble fraction was separated from precipitated proteins […]
(§4) by centrifugation at 30,000 × g for 20 min at 4 °C. The soluble fractions were collected to fresh tubes and further processed to be analysed with mass spectrometry. Sample handling, TMT labelling, LC-MS/MS analysis, protein identification and data analysis was performed as described earlier.[12] […]
(§5) […]

SCARB2 = target: T2, SCARB2 (Homo sapiens, UniProt Q14108); test: PISA thermal profiling, intact HepG2 cells; conditions: 30 µM, 60 min, n=3
T2 construct: endogenous in cells; host or cells: intact HepG2 cells
Experimental: as §1, §2, §3, §4, §5

[1] = test system: human peripheral blood mononuclear cells (PBMC); test: B-cell assay with stimulated PBMCs from healthy donors; conditions: for cell viability (live CD19+ B cells, flow cytometry) / stimulation‐induced B cell maturation (CD27+IgD− memory B cells of live CD19+ B cells): 6 days of culture; for IgG secretion: stimulated PBMCs from healthy human blood donors, 6 days, dose-dependent; for stimulation‐induced B cell maturation (CD27+IgD− memory B cells of live CD19+ B cells): three healthy donors
Experimental: as §5

T2 sequence (Q14108 whole entry): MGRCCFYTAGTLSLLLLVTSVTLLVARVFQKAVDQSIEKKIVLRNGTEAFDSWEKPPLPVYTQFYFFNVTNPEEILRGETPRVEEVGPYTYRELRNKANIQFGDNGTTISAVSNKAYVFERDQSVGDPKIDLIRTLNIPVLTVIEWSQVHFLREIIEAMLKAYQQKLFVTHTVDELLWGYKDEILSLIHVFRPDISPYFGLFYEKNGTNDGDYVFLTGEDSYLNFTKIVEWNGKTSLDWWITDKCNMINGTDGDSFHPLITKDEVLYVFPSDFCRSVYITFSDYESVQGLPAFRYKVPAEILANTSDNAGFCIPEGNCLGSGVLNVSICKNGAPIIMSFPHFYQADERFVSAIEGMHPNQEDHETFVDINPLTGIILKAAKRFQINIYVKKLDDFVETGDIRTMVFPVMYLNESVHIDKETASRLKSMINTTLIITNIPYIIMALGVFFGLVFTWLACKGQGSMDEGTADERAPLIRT
T1 sequence (O43493 22-437): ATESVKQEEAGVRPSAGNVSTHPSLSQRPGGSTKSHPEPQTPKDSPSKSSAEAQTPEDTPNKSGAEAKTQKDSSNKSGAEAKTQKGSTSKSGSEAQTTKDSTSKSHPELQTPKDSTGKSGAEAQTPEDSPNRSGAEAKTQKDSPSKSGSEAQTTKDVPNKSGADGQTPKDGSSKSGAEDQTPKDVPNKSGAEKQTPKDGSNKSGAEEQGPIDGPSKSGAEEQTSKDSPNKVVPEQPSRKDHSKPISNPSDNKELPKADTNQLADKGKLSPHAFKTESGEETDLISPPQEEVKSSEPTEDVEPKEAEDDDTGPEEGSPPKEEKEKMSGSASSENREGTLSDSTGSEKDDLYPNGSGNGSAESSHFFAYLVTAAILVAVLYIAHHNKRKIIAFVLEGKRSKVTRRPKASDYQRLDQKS

Compound | effect_CETSA_Intact (PISA amplitude), TGOLN2 (TGOLN2) | effect_CETSA_Intact (PISA amplitude), SCARB2 (SCARB2) | cell viability (live CD19+ B cells, flow cytometry) [1] | IgG secretion [1] | stimulation‐induced B cell maturation (CD27+IgD− memory B cells of live CD19+ B cells) [1]
COc1cc2c(NC3CCN(C(C)C)CC3)nc(C3CCCCC3)nc2cc1OCCCN1CCCC1 [UNC0638] | 0.53 | 0.251 | not markedly affected | reduction of IgG secretion | reduce
COc1cc2c(N(C)C3CCN(C(C)C)CC3)nc(C3CCCCC3)nc2cc1OCCCN1CCCC1 [UNC0737] | 0.571 | 0.514 | not markedly affected | reduction of IgG secretion | reduce
